This is an account of results in US20230265151A1, “GIP/GLP1 CO-AGONIST COMPOUNDS” (priority 2020, published 2023).

Read-outs that look alike come from different tables or passages of the source.

Common to all, as to format: cell-based
The target in one test is T1, hGIPR (Homo sapiens, UniProt P48546).
T1 construct: expressed in transfected cells
T1 sequence (P48546 22-466): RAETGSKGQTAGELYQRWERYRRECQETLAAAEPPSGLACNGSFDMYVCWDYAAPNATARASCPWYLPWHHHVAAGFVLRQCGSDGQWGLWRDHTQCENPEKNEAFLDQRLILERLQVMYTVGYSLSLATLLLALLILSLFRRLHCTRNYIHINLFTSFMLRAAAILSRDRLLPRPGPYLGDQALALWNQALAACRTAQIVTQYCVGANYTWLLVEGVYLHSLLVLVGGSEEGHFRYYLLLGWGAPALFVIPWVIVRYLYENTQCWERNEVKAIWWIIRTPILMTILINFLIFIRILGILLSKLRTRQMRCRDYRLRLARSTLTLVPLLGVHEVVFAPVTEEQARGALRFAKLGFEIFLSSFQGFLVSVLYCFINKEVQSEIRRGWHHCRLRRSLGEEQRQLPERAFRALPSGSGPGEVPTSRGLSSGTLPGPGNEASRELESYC
Nature of the test: Functional cAMP formation (HTRF) in HEK-293 clonal cells expressing hGIPR, 0.1% bovine casein, without or with 1.0% human serum albumin. The following applies: for EC50: geometric mean. In a few lines: (§1)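 Cells were stimulated with peptide for 30 min at 37° C, then lysed in buffer carrying cAMP-d2 and anti-cAMP Eu3+-cryptate for a competitive HTRF read after at least 60 min at room temperature. The 665/620 nm ratio was converted to nM cAMP against a standard curve.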
Background: Cyclic AMP is a second messenger, typically raised through Gs and lowered through Gi signalling.

In another test the target is T2, hGCGR (Homo sapiens, UniProt P47871).
T2 construct: expressed in transfected cells
The test can be described thus: Functional cAMP formation (HTRF) in HEK-293 clonal cells expressing hGCGR, 0.1% bovine casein, without or with 1.0% human serum albumin. The settings on record: geometric mean. In a few lines:
as §1

The target of a further test is hGLP-1R (Homo sapiens, UniProt P43220). Nature of the test: Functional cAMP formation (HTRF) in HEK-293 clonal cells expressing hGLP-1R, 0.1% bovine casein, without or with 1.0% human serum albumin. The settings on record: for EC50: geometric mean. The arrangement: expressed in transfected cells. The method in brief:
as §1

The mark [1] stands for this setting: HEK293, 0.1% bovine casein and 1.0% human serum albumin, 37° C., percent of maximal response to GIP(1-42)NH2, read-out: hGIPR Emax, % ± SEM.
[2] abbreviates: HEK293, percent of maximal response to GIP(1-42)NH2, 37° C., 0.1% bovine casein, arithmetic mean, read-out: hGIPR Emax, % ± SEM.
Setting [3] is: 0.1% bovine casein and 1.0% human serum albumin, 37° C., read-out: hGCGR EC50, nM (SEM, n).
The mark [4] stands for this setting: cAMP, incubated at 37° C., 0.1% bovine casein (no human serum albumin), read-out: hGCGR EC50, nM (SEM, n).
The mark [5] stands for this setting: HEK293, 0.1% bovine casein and 1.0% human serum albumin, 37° C., percent of maximal response to GLP-1(7-36)NH2, read-out: hGLP-1R Emax, % ± SEM.
Setting [6] is: cAMP, incubated at 37° C., 0.1% bovine casein (no human serum albumin), read-out: hGLP-1R EC50, nM (SEM, n).
Where [7] appears, read: cAMP, incubated at 37° C., 0.1% bovine casein (no human serum albumin), read-out: hGIPR EC50, nM (SEM, n).
Where [8] appears, read: HEK293, percent of maximal response to GLP-1(7-36)NH2, 37° C., 0.1% bovine casein, arithmetic mean, read-out: hGLP-1R Emax, % ± SEM.

One may read the EC50 as the concentration that produces a half-maximal response. What is called Emax is the greatest response seen or fitted, relative to the assay's reference.

T2 sequence (P47871 26-477): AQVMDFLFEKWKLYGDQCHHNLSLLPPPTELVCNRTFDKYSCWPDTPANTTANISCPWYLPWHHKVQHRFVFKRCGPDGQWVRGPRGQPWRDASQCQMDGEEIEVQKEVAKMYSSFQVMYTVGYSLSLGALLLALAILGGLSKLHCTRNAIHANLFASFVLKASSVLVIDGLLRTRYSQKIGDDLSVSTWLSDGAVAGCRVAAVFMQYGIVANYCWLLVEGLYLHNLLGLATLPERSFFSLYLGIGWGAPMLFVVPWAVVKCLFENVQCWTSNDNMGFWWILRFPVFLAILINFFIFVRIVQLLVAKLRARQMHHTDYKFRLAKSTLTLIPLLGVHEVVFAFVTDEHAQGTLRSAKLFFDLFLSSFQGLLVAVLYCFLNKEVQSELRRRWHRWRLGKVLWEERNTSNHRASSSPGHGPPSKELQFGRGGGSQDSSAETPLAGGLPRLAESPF
Chain of hGLP-1R (P43220 24-463): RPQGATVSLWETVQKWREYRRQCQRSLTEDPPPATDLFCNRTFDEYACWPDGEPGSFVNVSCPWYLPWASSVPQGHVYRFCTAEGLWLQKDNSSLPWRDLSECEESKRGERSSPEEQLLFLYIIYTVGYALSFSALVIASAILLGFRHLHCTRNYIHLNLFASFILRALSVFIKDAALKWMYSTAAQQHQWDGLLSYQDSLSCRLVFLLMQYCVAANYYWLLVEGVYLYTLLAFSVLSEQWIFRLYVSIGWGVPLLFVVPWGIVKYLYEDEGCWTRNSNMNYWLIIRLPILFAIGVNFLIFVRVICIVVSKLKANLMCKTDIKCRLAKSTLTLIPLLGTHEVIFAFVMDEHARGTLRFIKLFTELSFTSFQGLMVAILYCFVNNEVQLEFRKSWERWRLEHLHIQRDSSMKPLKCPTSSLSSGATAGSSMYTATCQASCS

As to `CCCCCCCCCCCC(=O)N[C@@H](CCC(=O)NCCOCCOCC(=O)NCCOCCOCC(=O)NCCCC[C@H](NC(=O)CNC(=O)CNC(=O)[C@H](CCC(=O)O)NC(=O)[C@@H](NC(=O)[C@H](CC(C)C)NC(=O)[C@](C)(Cc1ccc(O)cc1)NC(=O)[C@@H](CCC(=O)O)NC(=O)[C@@H](NC(=O)[C@H](Cc1ccccc1)NC(=O)[C@H](CCC(=O)O)NC(=O)C(C)(C)NC(=O)[C@H](CCC(N)=O)NC(=O)[C@H](C)NC(=O)[C@H](CCCCNC(=O)COCCOCCNC(=O)COCCOCCNC(=O)CC[C@H](NC(=O)CCCCCCCCCCC)C(=O)O)NC(=O)[C@H](CCCN)NC(=O)[C@H](CC(=O)O)NC(=O)[C@H](CC(C)C)NC(=O)[C@](C)(CC(C)C)NC(=O)[C@@H](NC(=O)[C@H](CO)NC(=O)[C@H](Cc1ccncc1)NC(=O)[C@H](CC(=O)O)NC(=O)[C@H](CO)NC(=O)[C@@H](NC(=O)[C@](C)(Cc1ccccc1)NC(=O)[C@@H](NC(=O)CNC(=O)[C@H](CCC(=O)O)NC(=O)C(C)(C)NC(=O)[C@@H](N)Cc1ccc(O)cc1)[C@@H](C)O)[C@@H](C)O)[C@@H](C)CC)[C@@H](C)CC)[C@@H](C)CC)C(=O)N[C@@H](CO)C(=O)N[C@@H](CO)C(=O)NCC(=O)N[C@@H](C)C(=O)N1CCC[C@H]1C(=O)N1CCC[C@H]1C(=O)N1CCC[C@H]1C(=O)N[C@@H](CO)C(N)=O)C(=O)O` [Example 172], the EC50 is 0.385 nM on hGIPR (0.1% bovine casein and 1.0% human serum albumin, 37° C., read-out: hGIPR EC50, nM (SEM, n)); above 9950 nM at hGCGR (setting [3]); above 9950 nM on hGCGR (setting [4]); 7.7 nM at hGLP-1R (0.1% bovine casein and 1.0% human serum albumin, 37° C., read-out: hGLP-1R EC50, nM (SEM, n)); 0.141 nM at hGLP-1R (setting [6]). The Emax at hGIPR (setting [1]) turned out to be 80.1 ± 2.06%; at hGIPR (setting [2]) it was 89.9 ± 1.05%; at hGLP-1R (setting [5]), 112 ± 10.3%.
In the case of `CC[C@H](C)[C@H](NC(=O)[C@H](CC(C)C)NC(=O)[C@](C)(Cc1ccc(O)cc1)NC(=O)[C@H](CCCCNC(=O)COCCOCCNC(=O)COCCOCCNC(=O)CC[C@H](NC(=O)CCCCCCCCCCCCC(=O)O)C(=O)O)NC(=O)[C@@H](NC(=O)[C@H](Cc1ccccc1)NC(=O)[C@H](CCC(=O)O)NC(=O)C(C)(C)NC(=O)[C@H](CCC(N)=O)NC(=O)[C@H](C)NC(=O)[C@H](CCCCNC(=O)COCCOCCNC(=O)COCCOCCNC(=O)CC[C@H](NC(=O)CCCCCCCCCCCCC(=O)O)C(=O)O)NC(=O)[C@H](CCCN)NC(=O)[C@H](CC(=O)O)NC(=O)[C@H](CC(C)C)NC(=O)[C@](C)(CC(C)C)NC(=O)[C@@H](NC(=O)[C@](C)(CO)NC(=O)[C@H](Cc1ccncc1)NC(=O)[C@H](CC(=O)O)NC(=O)[C@H](CO)NC(=O)[C@@H](NC(=O)[C@](C)(Cc1ccccc1F)NC(=O)[C@@H](NC(=O)CNC(=O)[C@H](CCC(=O)O)NC(=O)C(C)(C)NC(=O)[C@@H](N)Cc1ccc(O)cc1)[C@@H](C)O)[C@@H](C)O)[C@@H](C)CC)[C@@H](C)CC)C(=O)N[C@@H](CCC(=O)O)C(=O)NCC(=O)NCC(=O)N1CCC[C@H]1C(=O)N[C@@H](CO)C(=O)N[C@@H](CO)C(=O)NCC(=O)N[C@@H](C)C(=O)N1CCC[C@H]1C(=O)N1CCC[C@H]1C(=O)N1CCC[C@H]1C(=O)N[C@@H](CO)C(N)=O` [Example 214], the Emax is 80.4% on hGIPR (HEK293, read-out: hGIPR Emax, % ± SEM, 0.1% bovine casein and 1.0% human serum albumin, 37° C., percent of maximal response to GIP(1-42)NH2); 93.2% on hGLP-1R (HEK293, read-out: hGLP-1R Emax, % ± SEM, percent of maximal response to GLP-1(7-36)NH2, 37° C., 0.1% bovine casein, arithmetic mean). In addition, the EC50 at hGIPR (hGIPR EC50, nM (SEM, n), 0.1% bovine casein and 1.0% human serum albumin, 37° C.) is 2.03 nM; at hGIPR (hGIPR EC50, nM (SEM, n), cAMP, incubated at 37° C., 0.1% bovine casein (no human serum albumin)), 0.0351 nM; on hGCGR (hGCGR EC50, nM (SEM, n), 0.1% bovine casein and 1.0% human serum albumin, 37° C.) it was above 9950 nM; on hGCGR (hGCGR EC50, nM (SEM, n), cAMP, incubated at 37° C., 0.1% bovine casein (no human serum albumin)) it was above 9950 nM; at hGLP-1R (hGLP-1R EC50, nM (SEM, n), 0.1% bovine casein and 1.0% human serum albumin, 37° C.), 17.9 nM.
As to `CCCCCCCCCCCC(=O)N[C@@H](CCC(=O)NCCOCCOCC(=O)NCCOCCOCC(=O)NCCCC[C@H](NC(=O)CNC(=O)CNC(=O)[C@H](CCC(=O)O)NC(=O)[C@@H](NC(=O)[C@H](CC(C)C)NC(=O)[C@](C)(Cc1ccc(O)cc1)NC(=O)[C@@H](CCC(=O)O)NC(=O)[C@@H](NC(=O)[C@H](Cc1ccccc1)NC(=O)[C@H](CCC(=O)O)NC(=O)C(C)(C)NC(=O)[C@H](CCC(N)=O)NC(=O)[C@H](C)NC(=O)[C@H](CCCCNC(=O)COCCOCCNC(=O)COCCOCCNC(=O)CC[C@H](NC(=O)CCCCCCCCCCC)C(=O)O)NC(=O)[C@H](CCCN)NC(=O)[C@H](CC(=O)O)NC(=O)[C@H](CC(C)C)NC(=O)[C@](C)(CC(C)C)NC(=O)[C@@H](NC(=O)C(C)(C)NC(=O)[C@@H](NC(=O)[C@H](CC(=O)O)NC(=O)[C@H](CO)NC(=O)[C@@H](NC(=O)[C@](C)(Cc1ccccc1)NC(=O)[C@@H](NC(=O)CNC(=O)[C@H](CCC(=O)O)NC(=O)C(C)(C)NC(=O)[C@@H](N)Cc1ccc(O)cc1)[C@@H](C)O)[C@@H](C)O)C(C)C)[C@@H](C)CC)[C@@H](C)CC)[C@@H](C)CC)C(=O)N[C@@H](CO)C(=O)N[C@@H](CO)C(=O)NCC(=O)N[C@@H](C)C(=O)N1CCC[C@H]1C(=O)N1CCC[C@H]1C(=O)N1CCC[C@H]1C(=O)N[C@@H](CO)C(N)=O)C(=O)O` [Example 176], the results for the Emax at hGIPR (setting [2]) and on hGLP-1R (setting [8]) were 89.3% and 98.9%, respectively. Besides, the EC50 at hGIPR (setting [7]) was 0.0485 nM; on hGCGR (setting [4]) it was above 9950 nM.
In the case of `CC[C@H](C)[C@H](NC(=O)[C@H](CCCN)NC(=O)[C@H](CC(=O)O)NC(=O)[C@H](CC(C)C)NC(=O)[C@](C)(CC(C)C)NC(=O)[C@@H](NC(=O)[C@H](CO)NC(=O)[C@H](Cc1ccncc1)NC(=O)[C@H](CC(=O)O)NC(=O)[C@H](CO)NC(=O)[C@@H](NC(=O)[C@](C)(Cc1ccccc1F)NC(=O)[C@@H](NC(=O)CNC(=O)[C@H](CCC(=O)O)NC(=O)C(C)(C)NC(=O)[C@@H](N)Cc1ccc(O)cc1)[C@@H](C)O)[C@@H](C)O)[C@@H](C)CC)C(=O)N[C@@H](C)C(=O)N[C@@H](CCC(N)=O)C(=O)NC(C)(C)C(=O)N[C@@H](CCCCNC(=O)COCCOCCNC(=O)COCCOCCNC(=O)CCCCCCCCCCCCC(=O)O)C(=O)N[C@@H](Cc1ccccc1)C(=O)N[C@H](C(=O)N[C@H](CCC(=O)O)C(=O)N[C@@](C)(Cc1ccc(O)cc1)C(=O)N[C@@H](CC(C)C)C(=O)N[C@H](C(=O)N[C@@H](CCCCNC(=O)COCCOCCNC(=O)COCCOCCNC(=O)CCCCCCCCCCCCC(=O)O)C(=O)NCC(=O)NCC(=O)N1CCC[C@H]1C(=O)N[C@@H](CO)C(=O)N[C@@H](CO)C(=O)NCC(=O)N[C@@H](C)C(=O)N1CCC[C@H]1C(=O)N1CCC[C@H]1C(=O)N1CCC[C@H]1C(=O)N[C@@H](CO)C(N)=O)[C@@H](C)CC)[C@@H](C)CC` [Example 222], the Emax at hGIPR (setting [1]) is 77.9%; at hGIPR (setting [2]), 98.7%; at hGLP-1R (setting [5]), 117%; at hGLP-1R (setting [8]), 91.6%. In addition, the EC50 was 0.0195 nM on hGIPR (setting [7]), above 9950 nM at hGCGR (setting [3]), above 9950 nM on hGCGR (setting [4]) and 0.518 nM at hGLP-1R (setting [6]).
